Broadly, the Ki is a dissociation constant, usually derived from enzyme kinetics or from competition with a known ligand. A low value points to higher affinity. A word on the inhibition: it is the relative decrease from the control value, in per cent. A higher inhibition goes with a strong effect. A word on the EC50: it is the concentration needed to bring the measured effect to its halfway point. The low end stands for a more potent agent, the high end for a less potent agent.

One assay concerns the target Plasmepsin II (Plasmodium falciparum, UniProt P46925). The assay can be described thus: Inhibition of Plasmodium falciparum plasmepsin-2.
The test system of assay [1] is Human immunodeficiency virus 1. The experiment in a line: Inhibition of HIV1 protease at 50 nM.
The nature of assay [2]: Selectivity for Plasmodium falciparum plasmepsin-2 over human cathepsin D.
In another assay the test system is Plasmodium falciparum. The assay can be described thus: Antimicrobial activity against Plasmodium falciparum in erythrocytes. The format is functional, organism-based.

Each structure is given as a SMILES string.

Plasmepsin II, sequence (P46925 whole entry): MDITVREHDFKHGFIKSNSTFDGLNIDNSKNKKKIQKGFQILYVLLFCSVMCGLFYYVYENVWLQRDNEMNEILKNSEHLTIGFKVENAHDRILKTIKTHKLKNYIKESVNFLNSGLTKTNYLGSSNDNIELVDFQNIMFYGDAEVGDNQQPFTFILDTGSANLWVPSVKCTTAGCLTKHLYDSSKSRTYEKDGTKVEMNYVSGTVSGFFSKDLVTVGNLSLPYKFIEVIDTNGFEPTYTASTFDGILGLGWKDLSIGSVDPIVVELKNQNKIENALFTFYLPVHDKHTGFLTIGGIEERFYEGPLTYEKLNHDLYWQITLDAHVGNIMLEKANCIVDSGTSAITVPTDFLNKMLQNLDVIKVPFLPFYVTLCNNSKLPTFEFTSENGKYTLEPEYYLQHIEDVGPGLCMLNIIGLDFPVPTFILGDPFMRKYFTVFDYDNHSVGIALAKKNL

In the case of `CSC[C@H](NC(=O)Cc1ccccc1)C(=O)N[C@@H](Cc1ccccc1)[C@H](O)C(=O)N1CSC(C)(C)[C@H]1C(=O)N[C@H]1c2ccccc2C[C@H]1O`, the Ki at Plasmepsin II is no more than 0.1 nM. This molecule also came in with an inhibition in assay [1] of 85%.

Turning to `CSC[C@H](NC(=O)Cc1ccc(O)cc1)C(=O)N[C@@H](Cc1ccccc1)[C@H](O)C(=O)N1CSC(C)(C)[C@H]1C(=O)N[C@H]1c2ccccc2C[C@H]1O`, on Plasmepsin II, the Ki is no more than 0.1 nM. Also, the inhibition in assay [1] came out at 88%.

With `CSC[C@H](NC(=O)Cc1cccc(N)c1)C(=O)N[C@@H](Cc1ccccc1)[C@H](O)C(=O)N1CSC(C)(C)[C@H]1C(=O)N[C@H]1c2ccccc2C[C@H]1O`, the Ki on Plasmepsin II amounted to 12 nM. In assay [1], this molecule showed an inhibition of 76%.

In turn, `CSC[C@H](NC(=O)COc1cccc2cnccc12)C(=O)N[C@@H](Cc1ccccc1)[C@H](O)C(=O)N1CSC(C)(C)[C@H]1C(=O)NC(C)(C)C` registered a Ki at Plasmepsin II of 36 nM. Moreover, the Ratio in assay [2] is 50.

`COc1cccc(CC(=O)N[C@@H](CSC)C(=O)N[C@@H](Cc2ccccc2)[C@H](O)C(=O)N2CSC(C)(C)[C@H]2C(=O)N[C@H]2c3ccccc3C[C@H]2O)c1` came in with a Ki on Plasmepsin II of 17 nM. The same molecule had an inhibition in assay [1] of 88%.

Turning to `CSC[C@H](NC(=O)OC1CCCCC1)C(=O)N[C@@H](Cc1ccccc1)[C@H](O)C(=O)N1CSC(C)(C)[C@H]1C(=O)N[C@H]1c2ccccc2C[C@H]1O`, the Ki at Plasmepsin II was 5 nM. The molecule also yielded an inhibition in assay [1] of 56%.

With `CSC[C@H](NC(=O)Cc1ccccc1N)C(=O)N[C@@H](Cc1ccccc1)[C@H](O)C(=O)N1CSC(C)(C)[C@H]1C(=O)N[C@H]1c2ccccc2C[C@H]1O`, affinity at Plasmepsin II was put at a Ki of 4 nM. For the same molecule, in assay [1], the inhibition was found to be 86%.

For `CSC[C@H](NC(=O)Cc1ccccc1O)C(=O)N[C@@H](Cc1ccccc1)[C@H](O)C(=O)N1CSC(C)(C)[C@H]1C(=O)N[C@H]1c2ccccc2C[C@H]1O`, the Ki at Plasmepsin II was 16 nM. In assay [1], this molecule showed an inhibition of 86%.

Consider `CSC[C@H](NC(=O)Cc1ccc(C)cc1)C(=O)N[C@@H](Cc1ccccc1)[C@H](O)C(=O)N1CSC(C)(C)[C@H]1C(=O)N[C@H]1c2ccccc2C[C@H]1O`, for which the Ki at Plasmepsin II was 5 nM. For the same molecule, the inhibition in assay [1] was determined as 88%.

Turning to `CSC[C@H](NC(=O)COc1cccc2cnccc12)C(=O)N[C@@H](Cc1ccccc1)[C@H](O)C(=O)N1CSC[C@H]1C(=O)NC(C)(C)C`, the Ki on Plasmepsin II was found to be 1000 nM.

In turn, `CSC[C@H](NC(=O)Cc1cccc(C)c1)C(=O)N[C@@H](Cc1ccccc1)[C@H](O)C(=O)N1CSC(C)(C)[C@H]1C(=O)N[C@H]1c2ccccc2C[C@H]1O` gave a Ki at Plasmepsin II of 18 nM. For the same molecule, the inhibition in assay [1] came out at 87%.

Molecule `COc1ccccc1CC(=O)N[C@@H](CSC)C(=O)N[C@@H](Cc1ccccc1)[C@H](O)C(=O)N1CSC(C)(C)[C@H]1C(=O)N[C@H]1c2ccccc2C[C@H]1O` showed a Ki on Plasmepsin II of 9 nM. This molecule also registered an inhibition in assay [1] of 81%.

For `Cc1cccc(C)c1OCC(=O)N[C@@H](Cc1ccccc1)[C@H](O)C(=O)N1CSC(C)(C)[C@H]1C(=O)N[C@H]1c2ccccc2C[C@H]1O`, at Plasmepsin II, the affinity, expressed as Ki, was 0.5 nM. For the same molecule, a half-maximal response in the assay with Plasmodium falciparum (EC50) required 6800 nM.

Regarding `CSC[C@H](NC(=O)COc1cccc2cnccc12)C(=O)N[C@@H](Cc1ccccc1)[C@H](O)C(=O)N1CSC(C)(C)[C@H]1C(=O)N[C@H]1c2ccccc2C[C@H]1O`, affinity on Plasmepsin II was put at a Ki of 3 nM. Further, it took 3100 nM to reach a half-maximal effect with Plasmodium falciparum (EC50). In assay [1], the inhibition turned out to be 99%.

In the case of `CSC[C@H](NC(=O)COc1cccc(Nc2ccccc2)c1)C(=O)N[C@@H](Cc1ccccc1)[C@H](O)C(=O)N1CSC(C)(C)[C@H]1C(=O)N[C@H]1c2ccccc2C[C@H]1O`, the affinity on Plasmepsin II, expressed as Ki, was 15 nM. This molecule also gave an inhibition in assay [1] of 98%.

`CSC[C@H](NC(=O)Cc1ccc(N)cc1)C(=O)N[C@@H](Cc1ccccc1)[C@H](O)C(=O)N1CSC(C)(C)[C@H]1C(=O)N[C@H]1c2ccccc2C[C@H]1O`: the inhibitory constant (Ki) at Plasmepsin II was no more than 0.1 nM. The same molecule gave an inhibition in assay [1] of 68%.

Turning to `CSC[C@H](NC(=O)Cc1ccccc1C)C(=O)N[C@@H](Cc1ccccc1)[C@H](O)C(=O)N1CSC(C)(C)[C@H]1C(=O)N[C@H]1c2ccccc2C[C@H]1O`, the Ki at Plasmepsin II was determined as 0.2 nM. This molecule showed an EC50 in the assay on Plasmodium falciparum of 4700 nM. In addition, the inhibition in assay [1] amounted to 83%.

In turn, `COc1ccc(CC(=O)N[C@@H](CSC)C(=O)N[C@@H](Cc2ccccc2)[C@H](O)C(=O)N2CSC(C)(C)[C@H]2C(=O)N[C@H]2c3ccccc3C[C@H]2O)cc1` yielded a Ki on Plasmepsin II of 4 nM. Further, in assay [1], the inhibition was determined as 91%.

For `CSC[C@H](NC(=O)Cc1cccc(O)c1)C(=O)N[C@@H](Cc1ccccc1)[C@H](O)C(=O)N1CSC(C)(C)[C@H]1C(=O)N[C@H]1c2ccccc2C[C@H]1O`, the inhibition constant Ki on Plasmepsin II stood at 4 nM. The inhibition in assay [1] amounted to 84%.

At Plasmepsin II, `CSC[C@H](NC(=O)c1cc(=O)c2ccccc2o1)C(=O)N[C@@H](Cc1ccccc1)[C@H](O)C(=O)N1CSC(C)(C)[C@H]1C(=O)N[C@H]1c2ccccc2C[C@H]1O` displayed a Ki of 9 nM. In assay [1], this molecule had an inhibition of 99%.
